Measured values: patent US20250320193A1, “OXOISOINDOLINYL SUBSTITUTED PIPERIDINEDIONE DERIVATIVE AND USE THEREOF” (GLUETACS THERAPEUTICS (SHANGHAI) CO., LTD., priority 2022, published 2025)

Experiments:
[1] = target: human Cereblon WT GST-tagged protein (Homo sapiens (Human), UniProt Q96SW2); experiment: CRBN-binding affinity, HTRF (CEREBLON BINDING kit, CISBIO); details: HTRF inhibitory activity
In short: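 Compounds were mixed with GST-tagged human Cereblon WT protein, then with Thalidomide-Red tracer and GST Eu antibody, and binding was read by HTRF. Inhibition rate was calculated from 620 nm emission relative to blank control wells (no protein) and solvent control wells.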

[2] = target: IKZF1 (Homo sapiens (Human), UniProt Q13422+Q96SW2); experiment: Western blot, substrate protein expression in hPBMC: IKZF1; type: cell-based; details: hPBMC, compound 500 nM, 24 hours, Western blot
In short: (§1)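 hPBMC, 1×10^6 cells/mL, 24 h compound exposure; RIPA lysis, BCA protein assay, SDS-PAGE, NC membrane immunoblot. Densitometry vs internal control → % protein remaining; degradation % = 100% − remaining; DC50 = conc. at 50% of DMSO band signal.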

[3] = target: IKZF3 (Homo sapiens (Human), UniProt Q96SW2+Q9UKT9); experiment: Western blot, substrate protein expression in hPBMC: IKZF3; type: cell-based; details: hPBMC, compound 500 nM, 24 hours, Western blot
In short: as §1

[4] = target: GSPT1 (Homo sapiens (Human), UniProt P15170+Q96SW2); experiment: Western blot, substrate protein expression in hPBMC: GSPT1; type: cell-based; details: hPBMC, compound 500 nM, 24 hours, Western blot
In short: as §1

[5] = tested on: CAL-62 (human thyroid carcinoma cells); experiment: Tumor cell proliferation inhibition, CCK-8; type: cell-based; details: CAL-62 cells, CCK-8, read-out: inhibitory activity (IC50, nM) CAL-62
In short: (§2)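 CCK-8 viability read-out after compound exposure; IC50 fitted from growth inhibition. Cells grown at 37° C, 5% CO2, STR-verified and mycoplasma-negative; dosed 24 h post-seeding with 10-point, 5-fold dilutions, highest 10 μM.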

[6] = tested on: CCRF-CEM (human acute lymphoblastic leukemia T-cells); experiment: Tumor cell proliferation inhibition, CCK-8; type: cell-based; details: CCRF-CEM cells, CCK-8, read-out: inhibitory activity (IC50, nM) CCRF-CEM
In short: as §2

[7] = tested on: H146 cells (human small cell lung carcinoma cells); experiment: Tumor cell proliferation inhibition, CCK-8; type: cell-based; details: NCI-H146, H146 cells, CCK-8, read-out: inhibitory activity (IC50, nM) H146
In short: as §2

[8] = tested on: Jurkat cells (human T-cell leukemia cells); experiment: Tumor cell proliferation inhibition, CCK-8; type: cell-based; details: Jurkat cells, CCK-8, read-out: inhibitory activity (IC50, nM) Jurkat
In short: as §2

[9] = tested on: Kasumi-1 (human acute myeloid leukemia cells); experiment: Tumor cell proliferation inhibition, CCK-8; type: cell-based; details: Kasumi-1 cells, CCK-8, read-out: inhibitory activity (IC50, nM) Kasumi-1
In short: as §2

[10] = tested on: MDA-MB-231 cells (human breast adenocarcinoma cells); experiment: Tumor cell proliferation inhibition, CCK-8; type: cell-based; details: MDA-MB-231 cells, CCK-8, read-out: inhibitory activity (IC50, nM) MDA-MB-231
In short: as §2

[11] = tested on: MM.1R cells (dexamethasone-resistant human multiple myeloma cells); experiment: Tumor cell proliferation inhibition, CCK-8; type: cell-based; details: MM.1R cells, CCK-8, read-out: inhibitory activity (IC50, nM) MM.1R
In short: as §2

[12] = tested on: MM.1S cells (human multiple myeloma cells); experiment: Tumor cell proliferation inhibition, CCK-8; type: cell-based; details: MM1.S, MM.1S cells, CCK-8, read-out: inhibitory activity (IC50, nM) MM.1S
In short: as §2

[13] = tested on: TMD8 cells (human diffuse large B-cell lymphoma cells); experiment: Tumor cell proliferation inhibition, CCK-8; type: cell-based; details: TMD8 cells, CCK-8, read-out: inhibitory activity (IC50, nM) TMD8
In short: as §2

human Cereblon WT GST-tagged protein, sequence (Q96SW2 whole entry): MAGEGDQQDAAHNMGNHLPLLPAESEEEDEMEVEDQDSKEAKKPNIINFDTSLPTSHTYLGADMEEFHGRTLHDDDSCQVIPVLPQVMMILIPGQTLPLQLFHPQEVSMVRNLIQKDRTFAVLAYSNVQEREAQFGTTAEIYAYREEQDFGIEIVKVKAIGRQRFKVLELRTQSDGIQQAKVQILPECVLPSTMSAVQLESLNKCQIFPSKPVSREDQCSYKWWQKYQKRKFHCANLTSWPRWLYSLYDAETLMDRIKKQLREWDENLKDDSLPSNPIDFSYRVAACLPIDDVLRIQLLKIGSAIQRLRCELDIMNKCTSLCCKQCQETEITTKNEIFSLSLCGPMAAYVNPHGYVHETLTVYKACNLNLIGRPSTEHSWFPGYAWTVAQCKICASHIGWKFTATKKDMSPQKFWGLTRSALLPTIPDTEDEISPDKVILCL
IKZF3, sequence (Q9UKT9 whole entry): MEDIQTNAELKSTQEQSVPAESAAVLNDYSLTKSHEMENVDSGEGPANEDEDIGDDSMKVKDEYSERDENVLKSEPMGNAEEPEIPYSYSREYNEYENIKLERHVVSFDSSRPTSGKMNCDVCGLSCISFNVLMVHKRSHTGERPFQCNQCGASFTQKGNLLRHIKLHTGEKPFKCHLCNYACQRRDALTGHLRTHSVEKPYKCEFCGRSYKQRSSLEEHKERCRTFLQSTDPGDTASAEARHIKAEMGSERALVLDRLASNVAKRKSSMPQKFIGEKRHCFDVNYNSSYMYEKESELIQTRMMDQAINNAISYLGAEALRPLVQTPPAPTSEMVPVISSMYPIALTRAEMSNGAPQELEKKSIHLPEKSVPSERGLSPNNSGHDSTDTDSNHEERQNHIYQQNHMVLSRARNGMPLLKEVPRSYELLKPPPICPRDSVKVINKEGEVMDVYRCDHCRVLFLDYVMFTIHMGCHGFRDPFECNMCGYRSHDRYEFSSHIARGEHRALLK
IKZF3, sequence (Q96SW2 whole entry): as the sequence (Q96SW2 whole entry) above
IKZF3, sequence (Q16531 whole entry partner): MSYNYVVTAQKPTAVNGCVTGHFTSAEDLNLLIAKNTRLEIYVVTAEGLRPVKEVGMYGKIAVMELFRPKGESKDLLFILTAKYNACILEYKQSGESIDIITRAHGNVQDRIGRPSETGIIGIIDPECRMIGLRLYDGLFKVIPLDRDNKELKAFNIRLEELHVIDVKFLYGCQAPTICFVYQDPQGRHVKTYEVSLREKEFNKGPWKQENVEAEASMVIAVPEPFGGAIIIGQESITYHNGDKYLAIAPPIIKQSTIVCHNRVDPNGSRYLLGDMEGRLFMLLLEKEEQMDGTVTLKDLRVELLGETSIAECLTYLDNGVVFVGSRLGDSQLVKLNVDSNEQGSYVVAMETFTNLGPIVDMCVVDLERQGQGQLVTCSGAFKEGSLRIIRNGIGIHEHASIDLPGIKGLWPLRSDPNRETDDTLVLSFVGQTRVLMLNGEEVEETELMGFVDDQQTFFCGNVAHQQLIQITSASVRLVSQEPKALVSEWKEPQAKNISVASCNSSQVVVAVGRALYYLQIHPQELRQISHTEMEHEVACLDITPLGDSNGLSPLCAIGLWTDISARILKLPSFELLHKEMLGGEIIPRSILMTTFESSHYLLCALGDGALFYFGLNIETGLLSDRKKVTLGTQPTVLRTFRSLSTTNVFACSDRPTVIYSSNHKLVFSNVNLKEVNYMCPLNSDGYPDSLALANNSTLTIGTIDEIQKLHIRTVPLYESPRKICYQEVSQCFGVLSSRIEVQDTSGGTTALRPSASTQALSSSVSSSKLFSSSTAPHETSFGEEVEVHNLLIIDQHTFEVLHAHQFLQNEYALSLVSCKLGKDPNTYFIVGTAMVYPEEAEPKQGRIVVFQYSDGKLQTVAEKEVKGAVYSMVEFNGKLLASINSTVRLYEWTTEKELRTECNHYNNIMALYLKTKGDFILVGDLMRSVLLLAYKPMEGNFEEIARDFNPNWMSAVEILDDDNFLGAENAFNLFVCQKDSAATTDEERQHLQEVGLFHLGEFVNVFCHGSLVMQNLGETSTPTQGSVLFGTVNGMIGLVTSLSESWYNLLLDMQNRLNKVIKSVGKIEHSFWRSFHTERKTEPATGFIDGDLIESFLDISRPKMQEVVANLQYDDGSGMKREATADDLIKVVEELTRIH
GSPT1, sequence (P15170 whole entry): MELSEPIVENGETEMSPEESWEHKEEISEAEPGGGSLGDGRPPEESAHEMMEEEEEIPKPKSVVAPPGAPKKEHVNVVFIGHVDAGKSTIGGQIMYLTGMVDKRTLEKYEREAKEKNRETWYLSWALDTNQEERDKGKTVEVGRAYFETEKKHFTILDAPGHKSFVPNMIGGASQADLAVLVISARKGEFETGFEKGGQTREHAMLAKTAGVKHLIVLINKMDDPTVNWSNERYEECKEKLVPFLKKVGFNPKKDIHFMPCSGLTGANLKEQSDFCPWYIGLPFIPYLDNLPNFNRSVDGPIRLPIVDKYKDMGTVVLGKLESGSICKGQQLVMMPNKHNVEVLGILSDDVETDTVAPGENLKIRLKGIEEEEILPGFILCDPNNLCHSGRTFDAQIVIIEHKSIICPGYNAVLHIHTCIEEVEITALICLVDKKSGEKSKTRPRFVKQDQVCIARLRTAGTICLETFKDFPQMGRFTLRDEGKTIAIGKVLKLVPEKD
GSPT1, sequence (Q96SW2 whole entry): as the sequence (Q96SW2 whole entry) above
GSPT1, sequence (Q16531 whole entry partner): as the sequence (Q16531 whole entry partner) above
IKZF1, sequence (Q13422 whole entry): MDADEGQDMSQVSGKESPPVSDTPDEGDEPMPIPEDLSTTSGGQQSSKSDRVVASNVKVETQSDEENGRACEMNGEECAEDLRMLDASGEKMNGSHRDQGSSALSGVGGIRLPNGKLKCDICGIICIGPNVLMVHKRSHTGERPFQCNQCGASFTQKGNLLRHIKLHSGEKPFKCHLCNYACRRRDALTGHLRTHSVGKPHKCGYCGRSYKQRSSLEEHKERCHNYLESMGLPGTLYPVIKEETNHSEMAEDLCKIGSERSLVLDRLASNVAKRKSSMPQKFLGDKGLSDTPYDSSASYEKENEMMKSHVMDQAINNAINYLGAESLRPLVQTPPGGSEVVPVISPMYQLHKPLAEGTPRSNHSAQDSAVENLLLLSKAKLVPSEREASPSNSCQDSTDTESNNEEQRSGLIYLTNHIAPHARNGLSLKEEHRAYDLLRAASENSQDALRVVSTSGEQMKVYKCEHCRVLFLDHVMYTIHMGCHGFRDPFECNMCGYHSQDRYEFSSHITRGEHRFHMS
IKZF1, sequence (Q96SW2 whole entry): as the sequence (Q96SW2 whole entry) above
IKZF1, sequence (Q16531 whole entry partner): as the sequence (Q16531 whole entry partner) above

Structure (SMILES) | IC50 [1] | substrate protein remaining % IKZF1 [2] | substrate protein remaining % IKZF3 [3] | substrate protein remaining % GSPT1 [4] | IC50 [5] | IC50 [6] | IC50 [7] | IC50 [8] | IC50 [9] | IC50 [10] | IC50 [11] | IC50 [12] | IC50 [13]
O=C1CCC(N2Cc3cc(CN4CCN(C(c5ccccc5)c5ccccc5)CC4)ccc3C2=O)C(=O)N1 (stereo not shown) [GT-03245, 3-(5-((4-benzhydrylpiperazin-1-yl)methyl)-1-oxoisoindolin-2-yl)piperidine-2,6-dione] | 500 to 1000 nM | A (A represents 0% ≤ substrate protein remaining % ≤ 50%) | A (A represents 0% ≤ substrate protein remaining % ≤ 50%) | A (A represents 0% ≤ substrate protein remaining % ≤ 50%) | < 1 nM | < 1 nM | 10 to 50 nM | 1 to 10 nM | < 1 nM | 1 to 10 nM | < 1 nM | 1 to 10 nM | 10 to 50 nM
O=C1CCC(N2Cc3c(ccc(CN4CCN(C(c5cccc(F)c5)c5cccc(F)c5)CC4)c3F)C2=O)C(=O)N1 (stereo not shown) [GT-03703, 3-(5-((4-(bis(3-fluorophenyl)methyl)piperazin-1-yl)methyl)-4-fluoro-1-oxoisoindolin-2-yl)piperidine-2,6-dione] | < 500 nM | A (A represents 0% ≤ substrate protein remaining % ≤ 50%) | A (A represents 0% ≤ substrate protein remaining % ≤ 50%) | A (A represents 0% ≤ substrate protein remaining % ≤ 50%) | 1 to 10 nM | < 1 nM | 10 to 50 nM | 1 to 10 nM | 1 to 10 nM | 1 to 10 nM | 1 to 10 nM | 1 to 10 nM | 10 to 50 nM
O=C1CCC(N2Cc3c(ccc(CN4CCN(C(c5ccc(F)cc5)c5ccc(F)cc5)CC4)c3F)C2=O)C(=O)N1 (stereo not shown) [GT-03564, 3-(5-((4-(bis(4-fluorophenyl)methyl)piperazin-1-yl)methyl)-4-fluoro-1-oxoisoindolin-2-yl)piperidine-2,6-dione] | < 500 nM | A (A represents 0% ≤ substrate protein remaining % ≤ 50%) | A (A represents 0% ≤ substrate protein remaining % ≤ 50%) | A (A represents 0% ≤ substrate protein remaining % ≤ 50%) | 1 to 10 nM | 1 to 10 nM | 10 to 50 nM | 10 to 50 nM | 1 to 10 nM | 10 to 50 nM | 10 to 50 nM | 1 to 10 nM | 10 to 50 nM
O=C1CCC(N2Cc3c(ccc(CN4CCN(C(c5ccccc5)c5ccccn5)CC4)c3F)C2=O)C(=O)N1 (stereo not shown) [GT-03832, 3-(4-fluoro-1-oxo-5-((4-(phenyl(pyridin-2-yl)methyl)piperazin-1-yl)methyl)isoindolin-2-yl)piperidine-2,6-dione] | 500 to 1000 nM | B (B represents substrate protein remaining % > 50%) | A (A represents 0% ≤ substrate protein remaining % ≤ 50%) | A (A represents 0% ≤ substrate protein remaining % ≤ 50%) | 1 to 10 nM | 1 to 10 nM | 50 to 100 nM | 1 to 10 nM | 10 to 50 nM | 10 to 50 nM | 1 to 10 nM | 1 to 10 nM | 100 to 500 nM
O=C1CCC(N2Cc3cc(CN4CCN(C(c5ccccc5)c5ccccc5)CC4)c(F)cc3C2=O)C(=O)N1 (stereo not shown) [GT-03700, 3-(5-((4-benzhydrylpiperazin-1-yl)methyl)-6-fluoro-1-oxoisoindolin-2-yl)piperidine-2,6-dione] | 500 to 1000 nM | A (A represents 0% ≤ substrate protein remaining % ≤ 50%) | B (B represents substrate protein remaining % > 50%) | A (A represents 0% ≤ substrate protein remaining % ≤ 50%) | 1 to 10 nM | 1 to 10 nM | 10 to 50 nM | 1 to 10 nM | 1 to 10 nM | 1 to 10 nM | 1 to 10 nM | 1 to 10 nM | 10 to 50 nM
O=C1CCC(N2Cc3cc(CN4CCN(C(c5ccc(F)cc5)c5ccc(F)cc5)CC4)c(F)cc3C2=O)C(=O)N1 (stereo not shown) [GT-03698, 3-(5-((4-(bis(4-fluorophenyl)methyl)piperazin-1-yl)methyl)-6-fluoro-1-oxoisoindolin-2-yl)piperidine-2,6-dione] | 500 to 1000 nM | A (A represents 0% ≤ substrate protein remaining % ≤ 50%) | A (A represents 0% ≤ substrate protein remaining % ≤ 50%) | A (A represents 0% ≤ substrate protein remaining % ≤ 50%) | 1 to 10 nM | < 1 nM | 10 to 50 nM | 1 to 10 nM | 1 to 10 nM | 10 to 50 nM | 1 to 10 nM | 1 to 10 nM | 100 to 500 nM
O=C1CCC(N2Cc3cc(CN4CCN(C(c5cccc(F)c5)c5cccc(F)c5)CC4)c(F)cc3C2=O)C(=O)N1 (stereo not shown) [GT-03701, 3-(5-((4-(bis(3-fluorophenyl)methyl)piperazin-1-yl)methyl)-6-fluoro-1-oxoisoindolin-2-yl)piperidine-2,6-dione] | 500 to 1000 nM | A (A represents 0% ≤ substrate protein remaining % ≤ 50%) | A (A represents 0% ≤ substrate protein remaining % ≤ 50%) | A (A represents 0% ≤ substrate protein remaining % ≤ 50%) | 1 to 10 nM | 1 to 10 nM | 50 to 100 nM | 10 to 50 nM | 10 to 50 nM | 10 to 50 nM | 1 to 10 nM | 1 to 10 nM | 100 to 500 nM
O=C1CCC(N2Cc3cc(CN4CCN(C(c5ccccc5)c5ccccn5)CC4)c(F)cc3C2=O)C(=O)N1 (stereo not shown) [GT-03833, 3-(6-fluoro-1-oxo-5-((4-(phenyl(pyridin-2-yl)methyl)piperazin-1-yl)methyl)isoindolin-2-yl)piperidine-2,6-dione] | 1000 to 1900 nM | B (B represents substrate protein remaining % > 50%) | A (A represents 0% ≤ substrate protein remaining % ≤ 50%) | A (A represents 0% ≤ substrate protein remaining % ≤ 50%) | 1 to 10 nM | < 1 nM | 10 to 50 nM | 1 to 10 nM | 1 to 10 nM | 10 to 50 nM | 1 to 10 nM | 1 to 10 nM | 10 to 50 nM
O=C1CCC(N2Cc3cc(CN4CCN(C(c5ccc(F)cc5)c5ccc(F)cc5)CC4)ccc3C2=O)C(=O)N1 (stereo not shown) [GT-03386, 3-(5-((4-(bis(4-fluorophenyl)methyl)piperazin-1-yl)methyl)-1-oxoisoindolin-2-yl)piperidine-2,6-dione] | 500 to 1000 nM | A (A represents 0% ≤ substrate protein remaining % ≤ 50%) | A (A represents 0% ≤ substrate protein remaining % ≤ 50%) | A (A represents 0% ≤ substrate protein remaining % ≤ 50%) | 1 to 10 nM | 1 to 10 nM | 50 to 100 nM | 10 to 50 nM | 10 to 50 nM | 10 to 50 nM | 1 to 10 nM | 1 to 10 nM | 50 to 100 nM
O=C1CCC(N2Cc3cc(CN4CCN(C(c5ccccc5)c5ccccn5)CC4)ccc3C2=O)C(=O)N1 (stereo not shown) [GT-03835, 3-(1-oxo-5-((4-(phenyl(pyridin-2-yl)methyl)piperazin-1-yl)methyl)isoindolin-2-yl)piperidine-2,6-dione] | 500 to 1000 nM | A (A represents 0% ≤ substrate protein remaining % ≤ 50%) | A (A represents 0% ≤ substrate protein remaining % ≤ 50%) | A (A represents 0% ≤ substrate protein remaining % ≤ 50%) | 1 to 10 nM | 1 to 10 nM | 50 to 100 nM | 1 to 10 nM | 1 to 10 nM | 10 to 50 nM | 1 to 10 nM | 1 to 10 nM | 100 to 500 nM
